Experimental data: US10883963B2, “Electrochemical measurement using phenylenediamine derivative” (SEIKAGAKU CORPORATION, priority 2016, dated 2021)
Like-named read-outs stand apart in the source and are kept apart here.

Key:
[1] = Stability of labeling substances and substrates in 0.1 M HEPES at 37° C., cyclic voltammetric measurement; format: physicochemical; settings: for relative value of height of oxidation peak in voltammogram of free molecule (0 hours = 100%): 1.0 mM in 0.1 M HEPES pH 7.8, 37° C., light-shielded; for change of detected value in 2 hours after preparation: 0.1 M HEPES pH 7.8, 37° C.
Protocol: The labeling substances (pAP, MPDD, and DMPD) and the substrates for measurement (LGR-pAP, LGR-MPDD, LGR-DMPD) were dissolved into 0.1 M HEPES (pH 7.8) and prepared to be 1 mM, and were left to stand for 1 to 24 hours in an incubator at 37° C. Thereafter, a test was performed according to the following procedures.
As an electrochemical measurement method, cyclic voltammetry and a potential step chronoamperometric method were used. As a measuring device, a working electrode, a reference electrode, and a counter electrode, those described in <Measurement Conditions> below were used. In each measurement, the working electrode, the reference electrode, and the counter electrode were inserted in a solution, and respectively connected to connectors of a potentiostat for a working electrode, a reference electrode, and a counter electrode. After each measurement, the electrode surface of the working electrode was polished with […] polishing alumina, and cleaned with ultrapure water. In the cyclic voltammetric measurement, potential scanning was performed by setting an initial potential and a finish potential to 0 V, a first turnover potential to 0.4 V (0.6 V for LGR-pAP and LGR-DMPD, 0.7 V for LGR-MPDD), and a second turnover potential to −0.2 V, and the current was monitored. In the potential step chronoamperometric measurement, after 0.0 V was applied to the working electrode for 10 seconds, the potential was momentarily changed to 0.3 V, and the current was monitored for 35 seconds.
50 ml of test solutions (1.0 mM) of the respective substrates (LGR-pAP, LGR-MPDD, LGR-DMPD) and free molecules (pAP, MPDD, DMPD) were prepared by using 0.1 M HEPES (pH=7.8), put in a disposable 50 ml centrifuge tube (manufactured by IWAKI), and left to stand at 37° C. under light-shielded conditions. When a predetermined time (0.5 h, 1 h, 2 h, 4 h, and 24 h) elapsed, 5 ml was sampled from the test solution and subjected to cyclic voltammetric measurement. MPDD was measured when 6 hours and 8 hours elapsed as well. By using a test solution just after preparation, a measurement at a predetermined time of 0 hours was performed.

[2] = tested on: Limulus reagent Endospecy ES-24S; assay: Limulus test (2): endotoxin measurement by voltammetric method using labeled substrates; format: biochemical; settings: substrate for measurement 0.5 mM
Protocol: Limulus tests using the substrates for measurement acquired in <Reference Example 1> described above were performed, and measurements of endotoxin were performed by a voltammetric method. The test procedures are shown below.
The same conditions as those described in <Limulus Reaction> of <Example 2> described above were applied except that a cyclic voltammetric measurement was performed instead of the chronoamperometric measurement.
The same conditions as described in <Measurement Conditions> of <Example 1> above were applied.

[3] = Evaluation of quantitative performance: cyclic voltammetry and chronoamperometry of substrate / free molecule mixed solutions; format: physicochemical; settings: mixed solution of substrate and free molecule, 0.1 M HEPES pH 7.8, vs. Ag/AgCl
Source text: As a result of performing a cyclic voltammetric measurement in which the mixture ratio of a substrate and free molecule (labeling substance) was varied in stages, in a voltammogram of a mixed solution of LGR-pAP and pAP, two oxidation peaks at 0.15 V and 0.49 V were confirmed. From individual voltammograms of a substrate molecule and a free molecule, the peak near 0.49 V is considered to be derived from oxidation of LGR-pAP, and the peak near 0.15 V is considered to be derived from oxidation of pAP. Similarly, from a voltammogram of a mixed solution of LGR-DMPD and DMPD, an oxidation peak derived from LGR-DMPD was confirmed near 0.45V, and an oxidation peak derived from DMPD was confirmed near 0.19 V. Further, from a voltammogram of a mixed solution of LGR-MPDD and MPDD, an oxidation peak derived from LGR-MPDD was confirmed near 0.46 V, and an oxidation peak derived from MPDD was confirmed near 0.14 V. Further, when using any substrate, an oxidation peak current value of free molecules increased as the percentage of a free molecule increased. From these facts, it was considered that a concentration of free molecules in each mixed solution could be amperometrically quantified at a potential of 0.3 V vs. Ag/AgCl. Next, in each mixed solution, chronoamperometry was performed. […]
As an electrochemical measurement method, cyclic voltammetry and a potential step chronoamperometric method were used. […] In the cyclic voltammetric measurement, potential scanning was performed by setting an initial potential and a finish potential to 0 V, a first turnover potential to 0.4 V (0.6 V for LGR-pAP and LGR-DMPD, 0.7 V for LGR-MPDD), and a second turnover potential to −0.2 V, and the current was monitored. In the potential step chronoamperometric measurement, after 0.0 V was applied to the working electrode for 10 seconds, the potential was momentarily changed to 0.3 V, and the current was monitored for 35 seconds. […]

[4] = tested on: Limulus reagent Endospecy ES-24S; settings: FIG. 8 of Patent Literature 1; cited from earlier work
[5] = 1 mM; FIG. 4 of Patent Literature 1; cited from earlier work
[6] = 0 hours (just after preparation)

Compound | relative value of height of oxidation peak in voltammogram of free molecule (0 hours = 100%) [1, 6] | relative value of height of oxidation peak in voltammogram of free molecule (0 hours = 100%) ([1]; 0.5 h) | relative value of height of oxidation peak in voltammogram of free molecule (0 hours = 100%) ([1]; 1 h) | relative value of height of oxidation peak in voltammogram of free molecule (0 hours = 100%) ([1]; 2 h) | change of detected value in 2 hours after preparation [1] | Measured value B: maximum value of oxidation peak current value in Limulus test with substrate (labeling substance bonded to LGR) [2] | oxidation peak potential in cyclic voltammogram [3] | Measured value B: maximum value of oxidation peak current value in Limulus test with substrate (labeling substance bonded to LGR) [4] | oxidation peak current value of labeling substance itself [5]
CN(C)c1ccc(N)cc1 [DMPD, N, N-dimethyl-p-phenylenediamine] | 100.0% | 95.3% | 94.3% | 84.5% | showed a tendency to successively decrease | 0.31 μA | ~0.19 V | – | –
CNc1ccc(N)cc1 [MPDD, N-methyl-p-phenylenediamine] | 100.0% | 102.4% | 102.3% | 101.0% | no decrease | 0.60 μA | ~0.14 V | – | –
Nc1ccc(O)cc1 [pAP, P-aminophenol, reference compound] | 100.0% | 94.2% | 95.0% | 83.0% | showed a tendency to successively decrease | – | ~0.15 V | – | –
COc1ccc(N)cc1 [pMA, para methoxyaniline] | – | – | – | – | – | – | – | 0.28 μA | approximately 3.0 μA
